According to paper PMC4211326, “H-CRRETAWAC-OH, a Lead Structure for the Development of Radiotracer Targeting Integrin α 5 β 1?” (BioMed Research International, 2014):
Several values for one entry are separate records, joined by “and”; a condition that tells them apart may be missing. Equal entries are not always repeated. Where two headings read alike, the source gives them in different places. Where a SMILES comes first, the peptide text is derived from it. Bridges are numbered along the chain shown (N, C = ends). The star is where a group is joined. Propanoyl(2-F) = CC(F)C(=O)*

Experiments:
[1] = target: T1, integrin α5β1 (Homo sapiens, UniProt P05556+P08648); assay: Isolated receptor binding assay, immobilised integrin, [125I]echistatin displacement; details: for Ki: immobilized integrin; for Suppression of the binding of [125I]echistatin to immobilised integrin α5β1: result in words
T1 construct: purchased Chemicon, Millipore
Method: (§1) The receptor binding assay was performed following the procedure described previously. In brief, commercially available purifiedα v β 3,α 5 β 1, orα IIb β 3 (Triton X-100 formulation, Chemicon, Millipore) was diluted in coating buffer (25 mM Tris-HCl, 150 mM NaCl, 1 mM CaCl2, 0.5 mM MgCl2, 1 mM MnCl2, pH 7.4), and an aliquot of 100 μL/well, corresponding to 25 ng/wellα v β 3, 100 ng/wellα 5 β 1, or 50 ng/wellα IIb β 3, was added to a 96-well microtiter plate (Maxisorb, Nunc, Wiesbaden, Germany) and incubated at 4°C overnight. The cells were incubated for two hours with blocking buffer (200 μL, coating buffer containing 1% (w/v) bovine serum albumin (BSA)) at room temperature. After washing twice with binding buffer (coating buffer with 0.1% (w/v) BSA) the cells were incubated in the presence of the competing ligand (90 μL, 0.5 pM to 500 nM echistatin; 0.05 nM to 50 μM peptide in binding buffer) with [^125I]echistatin (0.37 kBq/well, 10 μL, 0.05 nM; PerkinElmer, Germany) for 3 h. Afterwards, the cells were washed three times with binding buffer, and bound [^125I]echistatin was solubilised with warm NaOH (2 M). The radioactivity in the resulting samples was measured by a γ-counter. Each data point represents the mean from three cells. All measurements were repeated at least once. K i values were calculated using the software program GraphPad PRISM (GraphPad Software Inc., CA, USA).
(§2) The binding affinities were determined using isolated receptor binding assays where the different integrins (α 5 β 1,α v β 3, andα IIb β 3) were immobilised and [^125I]echistatin was replaced by increasing amounts of the different peptides tested. […] Introduction of the (RS)-2-fluoropropionic acid at the N-terminus of the peptide reduced the binding affinity by a factor of approx. 10.

[2] = target: T2, integrin αvβ3 (Homo sapiens, UniProt P05106+P06756); assay: as above
T2 construct: purchased Chemicon, Millipore
Method: as §1, §2

[3] = system: α5β1; parameters: method as in PMID 7507494; details: read-out: IC50, inhibition of binding of fibronectin to α5β1; cited from earlier work
[4] = target: T3, integrin αIIbβ3 (Homo sapiens, UniProt P05106+P08514); assay: Isolated receptor binding assay, immobilised integrin, [125I]echistatin displacement
T3 construct: purchased Chemicon, Millipore
Method: as §1, §2

[5] = assay type: in vitro ADME, human
Method: The protein binding studies were carried out by incubating [^18F]FProp-C^*RRETAWAC^*-OH (1 MBq/mL) in fresh human serum at 37°C for different time points (30, 60, and 120 min). After incubation, the solution was passed through a spin column (MicroSpin G-50 columns; GE Healthcare, Buckinghamshire, United Kingdom). Protein binding was determined by measuring the activity fixed on the column and the activity in the eluate in the gamma counter. As control [^18F]FProp-C^*RRETAWAC^*-OH was incubated at the same concentration for 60 min in PBS instead of serum.

[6] = assay type: in vitro ADME, human; remark: listed apart in the source
Method: For stability studies, [^18F]FProp-C^*RRETAWAC^*-OH (approx. 2 MBq/mL) was incubated in human serum for 30, 60, and 120 min at 37°C. At each time point, aliquots of 100 μL were taken and proteins were precipitated using 150 μL acetonitrile. The suspension was treated for 5 min with ultrasound and subsequently centrifuged. The supernatant was diluted with water and analysed by HPLC.

[7] = system: DU145 human prostate carcinoma cells (αvβ3-negative and α5β1-positive); assay: Cell uptake study with/without blocking by H-C*RRETAWAC*-OH; assay type: cell-based; details: 37°C, with or without excess H-C*RRETAWAC*-OH
Method: (§3) M21 (α v β 3-positive andα 5 β 1-negative), […] (α v β 3-negative andα 5 β 1-positive), and M21L (both receptors negative) cells were maintained in Gibco RPMI 1640 (Life Technologies, Carlsbad, CA) containing 1% glutamine, 10% (v/v) fetal calf serum (FCS), and 1% penicillin/streptomycin/glutamine and grown in tissue culture flasks (Cellstar; Greiner Bio-One, Kremsmuenster, Austria) at 37°C in a humidified atmosphere of 5% CO2 (v/v). For cell uptake studies, cells were trypsinised, washed twice with binding buffer (10 mM HEPES (pH 7.4), 150 mM NaCl, 2 mM MnCl2, 0.1% BSA), and aliquots of 0.9 mL containing 2 × 10^6 cells were transferred to Eppendorf tubes. After addition of 50 μL radiotracer (>100,000 cpm), cells were incubated at 37°C for 120 min in triplicate with either 50 μL PBS with 0.5% BSA (unblocked) or 50 μL of 50 μM H-C^*RRETAWAC^*-OH in PBS/0.5% BSA (blocked), respectively.
(§4) Incubation was stopped by centrifugation (2 min, 1000 rpm); medium was removed and cells were washed twice with 1 mL ice-cold binding buffer. […] Cells were lysed by treatment in 1 N NaOH and […] radioactivity was collected (internalised radioligand fraction). Protein content in the NaOH fraction was determined using spectrophotometric determination with Bradford reagent (Sigma Aldrich, Vienna, Austria). Internalised radioactivity was expressed as percentage of total activity per mg protein.

[8] = system: M21-L human melanoma cells (both receptors negative); assay: as above; assay type: cell-based; details: 37°C, with or without excess H-C*RRETAWAC*-OH
Method: as §3, §4

[9] = average and standard deviation of the mean, or bound with n = 2, 125I-echistatin, read-out: Binding affinity (Ki) α5β1
[10] = single determinations, 125I-echistatin as radioligand, read-out: Binding affinity (Ki) α5β1
[11] = Binding affinity (Ki) α5β1, average and standard deviation of the mean, or bound with n = 2, 125I-echistatin
[12] = Binding affinity (Ki) α5β1, single determinations, 125I-echistatin as radioligand

T2 sequence (P06756 31-889 limits assumed): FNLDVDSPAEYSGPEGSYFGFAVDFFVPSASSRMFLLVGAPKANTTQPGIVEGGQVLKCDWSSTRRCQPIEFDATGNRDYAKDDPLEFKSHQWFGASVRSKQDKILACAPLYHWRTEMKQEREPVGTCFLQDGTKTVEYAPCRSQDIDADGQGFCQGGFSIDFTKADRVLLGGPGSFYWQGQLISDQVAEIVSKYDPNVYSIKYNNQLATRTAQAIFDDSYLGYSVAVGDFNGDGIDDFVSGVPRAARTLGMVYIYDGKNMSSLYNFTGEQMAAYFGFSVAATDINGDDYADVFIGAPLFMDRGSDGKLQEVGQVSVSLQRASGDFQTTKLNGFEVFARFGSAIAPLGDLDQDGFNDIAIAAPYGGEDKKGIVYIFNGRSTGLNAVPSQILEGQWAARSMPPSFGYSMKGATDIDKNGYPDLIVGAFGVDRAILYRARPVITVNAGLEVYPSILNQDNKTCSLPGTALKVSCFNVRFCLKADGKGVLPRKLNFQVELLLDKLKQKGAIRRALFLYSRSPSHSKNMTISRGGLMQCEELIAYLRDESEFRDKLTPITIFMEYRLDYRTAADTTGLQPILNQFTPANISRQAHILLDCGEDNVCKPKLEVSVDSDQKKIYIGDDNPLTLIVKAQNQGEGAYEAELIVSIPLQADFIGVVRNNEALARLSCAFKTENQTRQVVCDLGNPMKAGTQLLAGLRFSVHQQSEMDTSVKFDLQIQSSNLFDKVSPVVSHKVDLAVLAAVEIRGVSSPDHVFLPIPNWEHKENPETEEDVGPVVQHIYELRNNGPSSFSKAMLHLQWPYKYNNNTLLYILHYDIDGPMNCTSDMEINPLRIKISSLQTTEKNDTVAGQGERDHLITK
T2 sequence (P06756 891-1048 partner limits assumed): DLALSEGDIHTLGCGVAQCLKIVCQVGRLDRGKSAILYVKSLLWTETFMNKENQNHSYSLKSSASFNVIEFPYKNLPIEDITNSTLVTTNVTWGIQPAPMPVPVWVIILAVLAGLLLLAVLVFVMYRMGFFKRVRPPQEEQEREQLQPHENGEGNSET
T2 sequence (P05106 27-788): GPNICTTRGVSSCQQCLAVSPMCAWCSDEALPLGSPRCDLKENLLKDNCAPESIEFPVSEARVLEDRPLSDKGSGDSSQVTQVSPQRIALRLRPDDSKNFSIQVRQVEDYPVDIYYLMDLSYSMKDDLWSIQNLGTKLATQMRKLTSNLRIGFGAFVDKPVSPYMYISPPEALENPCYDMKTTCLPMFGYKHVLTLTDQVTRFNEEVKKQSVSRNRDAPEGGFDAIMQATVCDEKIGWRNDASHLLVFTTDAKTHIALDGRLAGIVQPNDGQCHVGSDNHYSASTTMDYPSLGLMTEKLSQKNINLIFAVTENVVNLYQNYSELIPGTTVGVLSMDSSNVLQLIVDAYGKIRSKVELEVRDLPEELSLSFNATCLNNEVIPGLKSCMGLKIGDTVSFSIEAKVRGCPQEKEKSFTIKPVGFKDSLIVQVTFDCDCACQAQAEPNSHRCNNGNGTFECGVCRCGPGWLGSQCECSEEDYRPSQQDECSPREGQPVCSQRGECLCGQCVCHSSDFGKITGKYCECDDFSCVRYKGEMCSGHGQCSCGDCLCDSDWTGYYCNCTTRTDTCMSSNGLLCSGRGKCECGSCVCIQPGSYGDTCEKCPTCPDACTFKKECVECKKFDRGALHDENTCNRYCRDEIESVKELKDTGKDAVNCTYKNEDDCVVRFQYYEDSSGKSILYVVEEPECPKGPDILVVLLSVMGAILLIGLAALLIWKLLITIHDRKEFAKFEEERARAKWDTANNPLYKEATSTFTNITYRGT
T1 sequence (P08648 42-894 limits assumed): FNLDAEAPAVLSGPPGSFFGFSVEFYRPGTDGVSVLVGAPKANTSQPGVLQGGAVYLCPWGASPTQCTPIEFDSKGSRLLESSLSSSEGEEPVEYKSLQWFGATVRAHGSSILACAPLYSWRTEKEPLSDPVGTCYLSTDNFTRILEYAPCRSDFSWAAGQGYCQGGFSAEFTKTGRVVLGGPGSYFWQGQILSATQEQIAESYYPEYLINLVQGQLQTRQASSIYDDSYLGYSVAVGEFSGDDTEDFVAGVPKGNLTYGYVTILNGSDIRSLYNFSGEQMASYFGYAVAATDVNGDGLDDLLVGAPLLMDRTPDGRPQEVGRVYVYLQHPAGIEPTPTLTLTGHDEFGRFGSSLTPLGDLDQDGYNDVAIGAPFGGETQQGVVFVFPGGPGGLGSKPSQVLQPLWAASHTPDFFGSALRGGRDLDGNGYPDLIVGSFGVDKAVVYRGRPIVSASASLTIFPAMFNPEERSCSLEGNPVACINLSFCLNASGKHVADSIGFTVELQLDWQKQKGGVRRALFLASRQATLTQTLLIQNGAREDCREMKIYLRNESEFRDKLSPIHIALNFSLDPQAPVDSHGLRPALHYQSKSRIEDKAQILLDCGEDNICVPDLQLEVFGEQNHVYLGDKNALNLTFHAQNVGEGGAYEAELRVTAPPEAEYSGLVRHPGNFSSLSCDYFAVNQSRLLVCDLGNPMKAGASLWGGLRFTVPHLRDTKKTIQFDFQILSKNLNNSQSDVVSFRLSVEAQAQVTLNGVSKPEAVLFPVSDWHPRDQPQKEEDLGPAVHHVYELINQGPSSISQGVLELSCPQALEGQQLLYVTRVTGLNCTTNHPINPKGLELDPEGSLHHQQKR
T1 sequence (P08648 895-1049 partner limits assumed): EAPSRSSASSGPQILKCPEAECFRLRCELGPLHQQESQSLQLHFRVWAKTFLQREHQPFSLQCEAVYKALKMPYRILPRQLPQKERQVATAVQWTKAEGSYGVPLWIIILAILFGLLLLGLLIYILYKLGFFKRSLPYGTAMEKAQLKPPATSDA
T1 sequence (P05556 21-798): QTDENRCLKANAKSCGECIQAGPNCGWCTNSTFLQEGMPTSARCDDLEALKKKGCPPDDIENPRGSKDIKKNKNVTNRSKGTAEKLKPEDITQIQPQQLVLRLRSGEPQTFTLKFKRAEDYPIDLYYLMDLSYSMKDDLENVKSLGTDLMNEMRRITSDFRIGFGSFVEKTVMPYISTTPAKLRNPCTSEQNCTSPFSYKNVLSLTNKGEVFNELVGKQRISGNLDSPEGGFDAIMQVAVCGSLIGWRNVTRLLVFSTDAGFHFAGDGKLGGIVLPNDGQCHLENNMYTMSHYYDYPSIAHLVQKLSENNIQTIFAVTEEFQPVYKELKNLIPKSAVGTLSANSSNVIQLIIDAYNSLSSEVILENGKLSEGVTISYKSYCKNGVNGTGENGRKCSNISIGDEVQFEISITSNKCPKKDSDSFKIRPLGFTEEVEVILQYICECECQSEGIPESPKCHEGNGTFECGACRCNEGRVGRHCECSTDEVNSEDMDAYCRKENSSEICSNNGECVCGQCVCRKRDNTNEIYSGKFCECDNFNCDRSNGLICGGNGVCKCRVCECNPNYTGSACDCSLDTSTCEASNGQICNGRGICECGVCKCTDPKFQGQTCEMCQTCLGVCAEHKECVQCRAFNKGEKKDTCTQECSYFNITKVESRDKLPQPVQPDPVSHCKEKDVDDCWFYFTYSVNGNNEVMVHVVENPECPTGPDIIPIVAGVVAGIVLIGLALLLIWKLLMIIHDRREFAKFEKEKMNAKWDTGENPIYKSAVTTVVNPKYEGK
T3 sequence (P08514 32-887 limits assumed): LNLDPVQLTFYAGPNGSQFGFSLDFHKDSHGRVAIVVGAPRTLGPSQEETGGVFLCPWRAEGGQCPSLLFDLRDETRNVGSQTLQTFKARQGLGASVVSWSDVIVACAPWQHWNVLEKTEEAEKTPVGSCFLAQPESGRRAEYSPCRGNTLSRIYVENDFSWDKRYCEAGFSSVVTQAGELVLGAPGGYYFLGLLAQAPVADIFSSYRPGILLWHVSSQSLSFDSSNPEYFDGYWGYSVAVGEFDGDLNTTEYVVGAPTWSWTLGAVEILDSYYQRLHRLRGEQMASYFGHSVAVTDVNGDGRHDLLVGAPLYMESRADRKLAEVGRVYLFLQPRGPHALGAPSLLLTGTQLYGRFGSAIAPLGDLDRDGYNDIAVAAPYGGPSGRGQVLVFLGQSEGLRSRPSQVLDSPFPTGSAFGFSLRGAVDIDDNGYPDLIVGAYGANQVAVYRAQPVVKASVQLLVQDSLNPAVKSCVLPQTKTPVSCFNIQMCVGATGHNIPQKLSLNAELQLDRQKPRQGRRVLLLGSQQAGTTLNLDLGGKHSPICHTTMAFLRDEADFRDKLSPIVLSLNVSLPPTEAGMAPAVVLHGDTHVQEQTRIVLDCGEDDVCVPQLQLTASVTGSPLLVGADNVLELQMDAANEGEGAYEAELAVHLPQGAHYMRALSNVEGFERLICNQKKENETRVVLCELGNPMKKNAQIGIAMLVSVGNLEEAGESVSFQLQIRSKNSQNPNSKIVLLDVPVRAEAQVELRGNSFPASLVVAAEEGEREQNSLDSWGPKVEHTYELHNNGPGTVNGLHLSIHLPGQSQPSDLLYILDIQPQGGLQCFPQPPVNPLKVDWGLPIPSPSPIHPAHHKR
T3 sequence (P08514 891-1039 partner limits assumed): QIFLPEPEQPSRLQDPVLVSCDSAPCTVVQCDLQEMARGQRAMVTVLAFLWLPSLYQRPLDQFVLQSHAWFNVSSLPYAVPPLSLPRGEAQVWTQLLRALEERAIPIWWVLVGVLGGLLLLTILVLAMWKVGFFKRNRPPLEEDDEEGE
T3 sequence (P05106 27-788): as the sequence (P05106 27-788) above

| Molecule | Ki [1, 9] | Suppression of the binding of [125I]echistatin to immobilised integrin α5β1 [1] | Ki [1, 10] | Ki [1, 11] | Ki [1, 12] | further results |
| --- | --- | --- | --- | --- | --- | --- |
| C[C@@H]1NC(=O)[C@H](Cc2c[nH]c3ccccc23)NC(=O)[C@H](C)NC(=O)[C@H]([C@@H](C)O)NC(=O)[C@H](CCC(=O)O)NC(=O)[C@H](CCCNC(=N)N)NC(=O)[C@H](CCCNC(=N)N)NC(=O)[C@@H](N)CSSC[C@@H](C(=O)O)NC1=O [H-C∗RRETAWAC∗-OH, H-Cys^*-Arg-Arg-Glu-Thr-Ala-Trp-Ala-Cys^*-OH] (H-CRRETAWAC-OH; disulfide 1-9) | 5.3 ± 4.1 nM | fully suppress | 10 nM and 3.9 nM and 2.1 nM | – | – | Ki ([2]; immobilized integrin, 125I-echistatin as radioligand, read-out: Binding affinity (Ki) αvβ3): > 50000 nM; IC50 [3]: 8 nM |
| CC(F)C(=O)N[C@H]1CSSC[C@@H](C(=O)O)NC(=O)[C@H](C)NC(=O)[C@H](Cc2c[nH]c3ccccc23)NC(=O)[C@H](C)NC(=O)[C@H]([C@@H](C)O)NC(=O)[C@H](CCC(=O)O)NC(=O)[C@H](CCCNC(=N)N)NC(=O)[C@H](CCCNC(=N)N)NC1=O (some centres unmarked) [FProp-C∗RRETAWAC∗-OH (1)] ({Propanoyl(2-F)}-CRRETAWAC-OH; disulfide 1-9) | – | – | – | 44 ± 3 nM | 41 nM and 47 nM | Ki [4]: > 50000 nM; Ki [2]: > 50000 nM |
| C[C@@H]1NC(=O)[C@H](Cc2c[nH]c3ccccc23)NC(=O)[C@H](C)NC(=O)[C@H]([C@@H](C)O)NC(=O)[C@H](CCC(=O)O)NC(=O)[C@H](C)NC(=O)[C@H](CCCNC(=N)N)NC(=O)[C@@H](N)CSSC[C@@H](C(=O)O)NC1=O [H-C∗RAETAWAC∗-OH] (H-CRAETAWAC-OH; disulfide 1-9) | 16 ± 1 nM | – | 17 nM and 15 nM | – | – | – |
| CC(F)C(=O)N[C@H]1CSSC[C@@H](C(=O)O)NC(=O)[C@H](C)NC(=O)[C@H](Cc2c[nH]c3ccccc23)NC(=O)[C@H](C)NC(=O)[C@H]([C@@H](C)O)NC(=O)[C@H](CCC(=O)O)NC(=O)[C@H](CCCNC(=N)N)NC(=O)[C@H](CCCNC(=N)N)NC1=O (some centres unmarked) [FProp-C∗RRETAWAC∗-OH (2)] ({Propanoyl(2-F)}-CRRETAWAC-OH; disulfide 1-9) | – | – | – | 77 ± 50 nM | 127 nM and 26 nM | Ki ([4]; read-out: Binding affinity (Ki) αIIbβ3, immobilized integrin, 125I-echistatin as radioligand): > 50000 nM; Ki ([2]; read-out: Binding affinity (Ki) αvβ3, immobilized integrin, 125I-echistatin as radioligand): > 50000 nM |
| FProp-C^*RRETAWAC^*-OH: non-radioactive reference compound, N-terminal (RS)-2-fluoropropionyl conjugate of the lead peptide ({(RS)‑2‑fluoropropionyl}-CRRETAWAC-OH; disulfide N-9) | – | fully suppress | – | – | – | – |
| [^18F]FProp-Cys^*-Arg-Arg-Glu-Thr-Ala-Trp-Ala-Cys^*-OH ({(18F)fluoropropionyl}-CRRETAWAC-OH; disulfide N-9) [[^18F]FProp-C^*RRETAWAC^*-OH, 18F-labelled radiopeptide tracer for integrin α5β1] | – | – | – | – | – | Protein bound activity in human serum [5]: below 6 % of the total incubated activity; Serum stability (percentage printed in Figure 2) [6]: 97.1%; Specific binding and internalisation (cell uptake) [7]: specific binding and internalisation; Specific uptake (cell uptake) [8]: no specific uptake |
